We go through one substance from paper PMC6015499 (Journal of medicinal chemistry, 2017).

One series in a line: PAMPA permeability. Format: in vitro ADME. Particulars: PAMPA. (In PAMPA a lipid-coated filter parts donor from acceptor wells.)
Series [1] is described as follows: aqueous kinetic solubility. Format: physicochemical. Particulars: phosphate buffer (pH 7.4).

For orientation: aqueous solubility means the dissolved amount per volume that the medium holds. A higher aqueous solubility goes with much dissolved substance.

Bounds are passed on as bounds.

On to “N-(3-(cis-3,5-Dimethylpiperidin-1-yl)propyl)-1-((2-(2-chloro-6-methoxyphenyl)-5-methyloxazol-4-yl)methyl)piperidine-4-carboxamide [7ww]”, for which, in “PAMPA permeability”, the PAMPA permeability is recorded as 197.7 1×10^−6 cm/s. In series [1], this substance showed an aqueous solubility of more than 73.0 µg/mL.
